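In this assay, cells in 96-well plates receive the compound at five concentrations for 48 hours. Endpoints are linearly interpolated between the surrounding concentrations. GI50 = concentration required for 50% inhibition of growth.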 Calls of active or inactive are those of the source. No stated cut-off is given here; in the data, active = GI50 up to about 1.1 µM and inactive = higher.

Consider ten molecules from ChEMBL document CHEMBL1201862, “PubChem BioAssay data set” (2004).

Among the test systems are KM12; NCI-H226; M14; SK-OV-3; OVCAR-8; HCT-116; TK-10; SF-268; SNB-19; COLO 205; MOLT-4; SF-295; A549; HCC 2998; SK-MEL-28; RPMI-8226; K562; PC-3; SF-539; CAKI-1.
What all share (experiment): DTP human tumour cell line panel, 48 h

Broadly, the GI50 is the concentration at which growth is held to half of that of the control. On to `O=C(O)c1ccccc1Sc1ccccc1[N+](=O)[O-]`, for which the GI50 with KM12, in the assay on NCI-H226, with M14, in the assay with SK-OV-3, in the assay with OVCAR-8 and in the assay with HCT-116 was > 100 µM (inactive) each time. Moreover, the GI50 with TK-10, in the assay on SF-268, with SNB-19, in the assay on COLO 205, in the assay with MOLT-4 and in the assay on SF-295 was > 100 µM (inactive) each time. The GI50 in the assay on A549, in the assay on HCC 2998, in the assay with SK-MEL-28, in the assay with RPMI-8226, in the assay with K562 and in the assay on PC-3 was > 100 µM (inactive) throughout. Also, the GI50 with SF-539 and in the assay on CAKI-1 was > 100 µM (inactive) each time.
Turning to `CCOC(=O)N1CCC2(CC1)C[C@](Sc1ccccc1)(C(C)=O)[C@H](C)O2`, the GI50 with KM12, in the assay with NCI-H226, in the assay with M14, with SK-OV-3, with OVCAR-8 and in the assay with TK-10 was > 100 µM (inactive) in each case. The GI50 in the assay with SF-268, with SNB-19, with COLO 205, in the assay with MOLT-4, in the assay on SF-295 and with A549 was > 100 µM (inactive) in each case. Further, the GI50 with HCC 2998, with SK-MEL-28, in the assay on RPMI-8226, in the assay with K562, in the assay with PC-3 and in the assay on SF-539 was > 100 µM (inactive) in each case. Further, the GI50 in the assay on CAKI-1 was > 100 µM (inactive).
Take `O=C(NC(CS)C(=O)O)c1c2ccccc2nc2ccccc12` (stereo not given): the GI50 in the assay with KM12 is 24.8 µM (inactive); in the assay with NCI-H226, < 0.01 µM (active); with M14 it was > 100 µM (inactive); in the assay with SK-OV-3, 95.3 µM (inactive); in the assay on OVCAR-8 it was 49.1 µM (inactive); with HCT-116, 13.6 µM (inactive). For the same molecule, the GI50 was > 100 µM (inactive) in the assay with TK-10; > 100 µM (inactive) in the assay with SF-268; 23.7 µM (inactive) with SNB-19; 4.55 µM (inactive) in the assay with COLO 205; 22.2 µM (inactive) in the assay with MOLT-4; 21.5 µM (inactive) in the assay with SF-295. In addition, the GI50 in the assay with A549 was 19.7 µM (inactive); in the assay on HCC 2998, 83.9 µM (inactive); with SK-MEL-28, 74.1 µM (inactive); in the assay on RPMI-8226 it was 54.1 µM (inactive); in the assay with K562, 40.2 µM (inactive); in the assay with PC-3 it was 23.9 µM (inactive). Also, the GI50 with SF-539 and in the assay on CAKI-1 was > 100 µM (inactive) in each case.
As for `Cc1cc2nc(O)c(C(C)C(=O)c3ccc(Cl)cc3)nc2cc1C` (stereo not given), the GI50 was 29.8 µM (inactive) in the assay on KM12; 35 µM (inactive) in the assay with NCI-H226; 45.6 µM (inactive) in the assay on M14; > 100 µM (inactive) in the assay on SK-OV-3; 32.5 µM (inactive) in the assay on OVCAR-8; 33.6 µM (inactive) with HCT-116. In addition, the GI50 in the assay with TK-10 is 27 µM (inactive); in the assay with SF-268 it was 47.5 µM (inactive); in the assay on SNB-19, 56.4 µM (inactive); in the assay with COLO 205 it was 22 µM (inactive); in the assay on MOLT-4 it was 27.7 µM (inactive); in the assay with SF-295, 31.7 µM (inactive). For the same molecule, the GI50 is 39.8 µM (inactive) in the assay with A549; 13.5 µM (inactive) in the assay with HCC 2998; 50.8 µM (inactive) in the assay on SK-MEL-28; 43.2 µM (inactive) in the assay on RPMI-8226; 40.6 µM (inactive) in the assay on K562; 31 µM (inactive) with PC-3. Besides, the GI50 with SF-539 was 23.4 µM (inactive); in the assay on CAKI-1, 81.7 µM (inactive).
Regarding `COC(=O)c1cc2ccc(N)nc2[nH]c1=O`, the GI50 in the assay with KM12, in the assay on NCI-H226, with M14, in the assay on SK-OV-3, with OVCAR-8 and in the assay on HCT-116 was > 100 µM (inactive) each time. In addition, the GI50 in the assay with TK-10, in the assay on SF-268, in the assay with SNB-19, in the assay on COLO 205, with SF-295 and in the assay with A549 was > 100 µM (inactive) throughout. Also, the GI50 with HCC 2998, in the assay on SK-MEL-28, with RPMI-8226, in the assay with PC-3, in the assay on SF-539 and with CAKI-1 was > 100 µM (inactive) in each case.
Take `CC(C)CCC[C@@H](C)C1CCC2[C@@H]3CCC4CC(CCC=C(c5cc(Cl)c(OC(=O)c6ccccc6)c(C(=O)O)c5)c5cc(Cl)c(OC(=O)c6ccccc6)c(C(=O)O)c5)CC[C@]4(C)C3CC[C@@]21C` (stereo not given in full): the GI50 was > 100 µM (inactive) with KM12; 85.7 µM (inactive) in the assay on NCI-H226; 15.8 µM (inactive) in the assay on M14; > 100 µM (inactive) in the assay with SK-OV-3; > 100 µM (inactive) in the assay on OVCAR-8; > 100 µM (inactive) in the assay with HCT-116. Moreover, the GI50 in the assay on TK-10 was 52.2 µM (inactive); in the assay with SNB-19 it was > 100 µM (inactive); in the assay on COLO 205, > 100 µM (inactive); in the assay on MOLT-4, > 100 µM (inactive); in the assay with A549 it was > 100 µM (inactive); in the assay on HCC 2998 it was > 100 µM (inactive). Further, the GI50 in the assay with RPMI-8226, in the assay with K562, with PC-3, in the assay with SF-539 and in the assay with CAKI-1 was > 100 µM (inactive) throughout.
For the molecule `Cc1ccc2oc(=O)c3c(O)c4cccc(OC5OC(C)C6O[C@@H](c7ccccc7)OC6C5OC5OC(C)C(O)C(O)C5O)c4c4oc(=O)c1c2c34` (stereo not given in full), the GI50 in the assay on KM12 is 0.0785 µM (active); in the assay with NCI-H226, 0.0327 µM (active); in the assay on M14, 0.187 µM (active); with SK-OV-3, 0.2 µM (active); in the assay on OVCAR-8 it was < 0.0215 µM (active); with HCT-116, < 0.0171 µM (active). In addition, the GI50 with TK-10 was 0.392 µM (active); in the assay on SF-268, 0.0545 µM (active); in the assay with SNB-19, 0.334 µM (active); with COLO 205, 0.0675 µM (active); in the assay on SF-295 it was 0.0303 µM (active); in the assay on A549, 0.0354 µM (active). For the same molecule, the GI50 in the assay with HCC 2998 was 0.0442 µM (active); with SK-MEL-28 it was 0.159 µM (active); in the assay with RPMI-8226 it was 0.0366 µM (active); with K562 it was 0.0404 µM (active); in the assay with PC-3, 0.0955 µM (active); with SF-539 it was 0.0571 µM (active). Moreover, the GI50 in the assay on CAKI-1 is 0.138 µM (active).
On to `Cc1ccc(S(=O)(=O)OI(O)CC(F)(F)F)cc1`, for which the GI50 in the assay with KM12, in the assay with NCI-H226, with M14, with SK-OV-3, in the assay with OVCAR-8 and in the assay with HCT-116 was > 100 µM (inactive) throughout. In addition, the GI50 in the assay with TK-10, in the assay on SF-268, in the assay on COLO 205, in the assay on MOLT-4, with SF-295 and in the assay with A549 was > 100 µM (inactive) each time. In addition, the GI50 in the assay with HCC 2998, in the assay on SK-MEL-28, with RPMI-8226, in the assay on K562, with PC-3 and in the assay with SF-539 was > 100 µM (inactive) each time. The GI50 in the assay with CAKI-1 is > 100 µM (inactive).
With `CCOC(=O)C1(F)S(=O)(=O)OCCOS1(=O)=O`, the GI50 in the assay with KM12, in the assay on NCI-H226, with M14, in the assay with SK-OV-3, in the assay with OVCAR-8 and in the assay on HCT-116 was > 100 µM (inactive) in each case. Besides, the GI50 with TK-10, with SF-268, in the assay with SNB-19, in the assay on COLO 205, in the assay with MOLT-4 and in the assay on SF-295 was > 100 µM (inactive) throughout. For the same molecule, the GI50 in the assay on A549, with HCC 2998, with SK-MEL-28, in the assay on RPMI-8226, in the assay with PC-3 and with SF-539 was > 100 µM (inactive) each time. In addition, the GI50 with CAKI-1 is > 100 µM (inactive).
With `Cc1ccc(S(=O)(=O)N/N=C/C(Br)=C(/Br)C(=O)O)cc1`, the GI50 in the assay on KM12 is 10.6 µM (inactive); in the assay with NCI-H226 it was 8.55 µM (inactive); in the assay with M14, 4.53 µM (inactive); with SK-OV-3, 16.4 µM (inactive); in the assay on OVCAR-8, 2.6 µM (inactive); in the assay on HCT-116 it was 1.91 µM (inactive). The GI50 in the assay on TK-10 was 7.69 µM (inactive); in the assay on SF-268, 11.4 µM (inactive); in the assay with SNB-19, 13.8 µM (inactive); with COLO 205 it was 3.44 µM (inactive); in the assay on MOLT-4, 0.826 µM (active); in the assay with SF-295 it was 14.1 µM (inactive). Also, the GI50 in the assay with A549 was 19.5 µM (inactive); in the assay on HCC 2998, 4.29 µM (inactive); in the assay with SK-MEL-28, 2.94 µM (inactive); in the assay with RPMI-8226, 1.66 µM (inactive); in the assay with PC-3 it was 8.89 µM (inactive); in the assay on SF-539, 5.69 µM (inactive). Also, in the assay with CAKI-1, the GI50 was 5.64 µM (inactive).
